From US10913721B2, “Crystalline form of aripiprazole” (Noratech Pharmaceuticals, Inc., priority 2016, dated 2021)
“Also recorded” adds a separate entry of the source.

Key:
[1] = Comparison test for the dissolution rate of crystalline forms of aripiprazole; assay type: physicochemical; details: 0.25% sodium dodecyl sulfate solution (900 mL), slurry method, 50 rpm, 37° C.±0.5° C.; 15-360 min; compared with hydrate A and the conventional hydrate (FIG. 7)
Protocol: Sample preparation: Powders of crystalline form N, hydrate A and the conventional hydrate of aripiprazole are respectively sieved through a 100-mesh sieve, and the appropriate amount of sieved material (equivalent to 50 mg of aripiprazole) is taken and measured to determine the dissolution rate of each sample.
Dissolution conditions: 0.25% sodium dodecyl sulfate solution (900 mL): slurry method: 50 rpm; 37° C.±0.5° C.
Sample detection: Samples of 3 ml are respectively taken at 15, 30, 60, 90, 120, 240, and 360 min, and immediately littered through a 0.45 μm microporous membrane, 2 mL of the initial filtrate is discarded, and the drug concentration in the subsequent filtrate is measured.

[2] = as stated in WO 03/026659; cited from earlier work

Question: For `O=C1CCc2ccc(OCCCCN3CCN(c4cccc(Cl)c4Cl)CC3)cc2N1` [Crystalline form N, 7-{4-[4-(2,3-dichlorophenyl)-1-piperazinyl]-butoxy}-3,4-dihydroquinolone], which “dissolution rate (release rate)” value [1] is on record?
Answer: slower release rate; also recorded: slower dissolution rate

Question: Which hygroscopicity [2] does the source give for `O=C1CCc2ccc(OCCCCN3CCN(c4cccc(Cl)c4Cl)CC3)cc2N1` [type-I crystals] here?
Answer: significant hygroscopicity
